Measurements: PubChem BioAssay (NCI)
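Briefly, cells in 96-well plates were exposed to five compound concentrations for 48 h, and endpoints were estimated by linear interpolation. The concentration for full growth arrest is given as TGI.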

How the values were obtained:
Assay in all cases: NCI-60 cell line screen, 48 h
[1] = tested on: 786-0 renal
[2] = tested on: A549 NSCLC
[3] = tested on: ACHN renal
[4] = tested on: CCRF-CEM leukemia
[5] = tested on: COLO 205 colon
[6] = tested on: DLD-1 colon
[7] = tested on: DMS 273 small cell lung
[8] = tested on: EKVX NSCLC
[9] = tested on: HCC-2998 colon
[10] = tested on: HCT-116 colon
[11] = tested on: HCT-15 colon
[12] = tested on: HL-60(TB) leukemia
[13] = tested on: HOP-62 NSCLC
[14] = tested on: HT29 colon
[15] = tested on: IGROV1 ovarian
[16] = tested on: K-562 leukemia
[17] = tested on: KM12 colon
[18] = tested on: KM20L2 colon
[19] = tested on: LOX IMVI melanoma
[20] = tested on: LXFL 529 NSCLC
[21] = tested on: M14 melanoma
[22] = tested on: M19-MEL melanoma
[23] = tested on: MALME-3M melanoma
[24] = tested on: MOLT-4 leukemia
[25] = tested on: NCI-H226 lung
[26] = tested on: NCI-H23 lung
[27] = tested on: NCI-H460 lung
[28] = tested on: NCI-H522 lung
[29] = tested on: OVCAR-3 ovarian
[30] = tested on: OVCAR-4 ovarian
[31] = tested on: OVCAR-8 ovarian
[32] = tested on: RXF 393 renal
[33] = tested on: SF-268 CNS
[34] = tested on: SF-295 CNS
[35] = tested on: SF-539 CNS
[36] = tested on: SK-MEL-2 melanoma
[37] = tested on: SK-MEL-28 melanoma
[38] = tested on: SK-MEL-5 melanoma
[39] = tested on: SK-OV-3 ovarian
[40] = tested on: SN12C renal
[41] = tested on: SNB-19 CNS
[42] = tested on: SNB-75 CNS
[43] = tested on: SNB-78 CNS
[44] = tested on: SR leukemia
[45] = tested on: SW-620 colon
[46] = tested on: TK-10 renal
[47] = tested on: U251 CNS
[48] = tested on: UACC-257 melanoma
[49] = tested on: UACC-62 melanoma
[50] = tested on: UO-31 renal
[51] = tested on: XF 498 CNS
[52] = tested on: A498 renal
[53] = tested on: CAKI-1 renal
[54] = tested on: DMS 114 small cell lung
[55] = tested on: OVCAR-5 ovarian
[56] = tested on: RPMI-8226 leukemia
[57] = tested on: HOP-92 NSCLC

Measured: TGI

COc1ccc(Cn2c(C)nc3c2C(=O)c2ccccc2C3=O)cc1
26.7 µM: [17]
48.9 µM: [3]
14 µM: [49]
22.2 µM: [12]
37.3 µM: [4]
36.1 µM: [2]
24 µM: [29]
10.4 µM: [44]
38.6 µM: [15]
48.2 µM: [25]
68.1 µM: [33]
16.5 µM: [26]
71.9 µM: [42]
19 µM: [23]
38.2 µM: [35]
40 µM: [1]
24.7 µM: [48]
9.74 µM: [27]
27.1 µM: [51]
11.2 µM: [19]
58.2 µM: [34]
63.4 µM: [32]
23.5 µM: [21]
30 µM: [24]
13 µM: [10]
15.5 µM: [28]
57.4 µM: [50]
64.1 µM: [30]
16.7 µM: [22]
16.6 µM: [38]
49.2 µM: [8]
28.7 µM: [20]
29.8 µM: [36]
19.7 µM: [7]
51.7 µM: [13]
22.6 µM: [5]
30.1 µM: [16]
not listed: [52] | [53] | [54] | [55] | [56] | [57]
> 75 µM: all other assays above

COc1ccc(/C=C2\CN(C)Cc3c2nc(N)nc3-c2ccc(OC)cc2)cc1
85.2 µM: [12]
not listed: [11] | [14] | [30] | [44] | [48] | [57]
> 100 µM: all other assays above

Cc1c2cc(Cl)ccc2n2c(=O)c3ccccc3[nH]c(=O)c12
not listed: [2] | [3] | [8] | [11] | [12] | [14] | [17] | [18] | [19] | [27] | [29] | [31] | [32] | [34] | [38] | [40] | [41] | [45] | [46] | [47] | [48] | [51] | [52] | [55]
> 100 µM: all other assays above
